In patent US20220272990A1, “Methods and Compositions of the Botanical Extract to Promote and Boost Plant Growth and Prevent and Suppress Plant Diseases” (priority 2019, published 2022):

What was measured:
Fusarium graminearum = format: cell-based; conditions: thyme, yarrow extracts; 35% ethanol
Xanthomonas campestris = experiment: Burkholder's spot bioassay on carpet of bacteria; format: cell-based
[1] = tested on: Pathogenic Salmonella (S1); experiment: Burkholder's spot bioassay on carpet of bacteria; format: cell-based; conditions: Salmonella spp. (SL1); composition 2% + thymol 1:512, or single dose of thymol 1:512
Env. Salmonella (S22) = experiment: Burkholder's spot bioassay on carpet of bacteria; format: cell-based; conditions: Salmonella spp. (S22); composition 2% + thymol 1:512, or single dose of thymol 1:512
Protocol: Referring now to FIGS. 26A to 26C, environmental Salmonella (S22) treated with thyme, yarrow, the botanical composition and control (C) are shown. […] A determined volume of (i.e. 10 μl) dissolved extract from each concentration is spotted on carpet of bacteria.

Salmonella (S31) = experiment: Burkholder's spot bioassay on carpet of bacteria; format: cell-based; conditions: Salmonella spp. (S531); composition 2% + thymol 1:512, or single dose of thymol 1:512
Source text: Referring now to FIG. 28, Salmonella (S31—mungbean sprout isolate) treated with thyme is shown.

Aspergillus ochraceus = experiment: Antifungal and MIC spot assay on carpet of fungi; conditions: composition 1% + thymol 1:768, or thymol 1:768 alone

SMILES | inhibition of spore germination (Fusarium graminearum) | antimicrobial effectiveness (Xanthomonas campestris) | antimicrobial effectiveness [1] | antimicrobial effectiveness (Env. Salmonella (S22)) | antimicrobial effectiveness (Salmonella (S31)) | antifungal effectiveness on growth (Aspergillus ochraceus)
CCO [35% ethanol, ethanol] | complete inhibition | – | – | – | – | –
Cc1ccc(C(C)C)c(O)c1 [thymol] | – | not effective | not effective | not effective | not effective | not effective
